According to patent US10294202B2, “Pyrrolidinones as herbicides” (FMC Corporation, priority 2013, dated 2019):

Tests used:
[1] = system: barnyardgrass; experiment: Test C pre-/postemergence herbicide test; assay type: in vivo, Echinochloa crus-galli
Method in brief: (§1)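 Greenhouse plants scored visually against untreated controls 13–15 days after treatment, 0 = no effect, 100 = complete control. Test chemicals in a non-phytotoxic solvent with surfactant were applied either to soil (loam/sand) at planting or to foliage of 1- to 4-leaf plants, 2–18 cm tall.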

[2] = system: ragweed; experiment: Test A pre-/postemergence herbicide test; assay type: in vivo, Ambrosia elatior
Method in brief: (§2)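 Visual 0–100 ratings (100 = complete control) made about 10 days after treatment, greenhouse-held plants compared with untreated controls. Treatments: postemergence sprays on one- to two-leaf plants (2–10 cm tall) and preemergence directed soil sprays after planting in loam–sand, chemicals formulated in non-phytotoxic solvent containing surfactant.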

[3] = system: rice; experiment: Test C flooded paddy test; assay type: in vivo, Oryza sativa; conditions: Flood, scale of 0 to 100 where 0 is no effect and 100 is complete control, 13 to 15 days
Method in brief: (§3)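 2-leaf stage; flood 3 cm over soil; compound into paddy water; depth held; greenhouse 13–15 d; visual % control vs untreated (0 = none, 100 = complete); "-" = not tested.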

[4] = system: sedge, umbrella; experiment: Test C flooded paddy test; assay type: in vivo, Cyperus difformis; conditions: Flood, scale of 0 to 100 where 0 is no effect and 100 is complete control, 13 to 15 days
Method in brief: as §3

[5] = system: ryegrass, Italian; experiment: Test A pre-/postemergence herbicide test; assay type: in vivo, Lolium multiflorum
Method in brief: as §2

[6] = system: lambsquarters; experiment: Test C pre-/postemergence herbicide test; assay type: in vivo, Chenopodium album
Method in brief: as §1

[7] = system: kochia; experiment: Test A pre-/postemergence herbicide test; assay type: in vivo, Kochia scoparia
Method in brief: as §2

[8] = system: barnyardgrass; experiment: Test C flooded paddy test; assay type: in vivo, Echinochloa crus-galli; conditions: Flood, scale of 0 to 100 where 0 is no effect and 100 is complete control, 13 to 15 days
Method in brief: as §3

[9] = Postemergence, 31 g ai/ha, scale 0 to 100 (0 no effect, 100 complete control)
[10] = Postemergence, 62 g ai/ha, scale 0 (no effect) to 100 (complete control)
[11] = Postemergence, 125 g ai/ha, scale 0 to 100 (0 no effect, 100 complete control)
[12] = Postemergence, 250 g ai/ha, scale 0 to 100 (0 no effect, 100 complete control)
[13] = Preemergence, 31 g ai/ha, scale 0 to 100, 0 is no effect and 100 is complete control
[14] = Preemergence, 62 g ai/ha, scale 0 to 100 (0 no effect, 100 complete control)
[15] = Preemergence, 125 g ai/ha, scale 0 to 100 (0 no effect, 100 complete control)
[16] = Postemergence, 125 g ai/ha, visual rating on 0 to 100 scale (0 no effect, 100 complete control), approx. 10 days
[17] = Postemergence, 500 g ai/ha, 0 to 100 scale (0 no effect, 100 complete control)
[18] = Preemergence, 125 g ai/ha, 0 to 100 scale where 0 is no effect and 100 is complete control
[19] = Preemergence, 500 g ai/ha, visual rating on 0 to 100 scale (0 no effect, 100 complete control)
[20] = Preemergence, 125 g ai/ha, scale 0 to 100

Row | Structure (SMILES) | Plant response rating, Barnyardgrass [1, 9] | Plant response rating, Barnyardgrass [1, 10] | Plant response rating, Barnyardgrass [1, 11] | Plant response rating, Barnyardgrass [1, 12] | Barnyardgrass plant response rating [1, 13] | Barnyardgrass plant response rating [1, 14] | Plant response rating, Barnyardgrass [1, 15] | Plant response rating (scale of 0 to 100; 0 is no effect, 100 is complete control), Barnyardgrass ([1]; Preemergence, 250 g ai/ha) | Plant response rating, Ragweed [2, 16] | Plant response rating, Ragweed [2, 17] | Plant response rating, Ragweed [2, 18] | Ragweed plant response rating [2, 19] | Plant response rating, Rice ([3]; 31 g ai/ha) | Plant response rating, Rice ([3]; 62 g ai/ha) | Plant response rating, Rice ([3]; 125 g ai/ha) | Plant response rating, Rice ([3]; 250 g ai/ha) | Plant response rating, Sedge, Umbrella ([4]; 31 g ai/ha) | Plant response rating, Sedge, Umbrella ([4]; 62 g ai/ha) | Plant response rating, Sedge, Umbrella ([4]; 125 g ai/ha) | Plant response rating, Sedge, Umbrella ([4]; 250 g ai/ha) | further results
1 | O=C1NCC(c2cccc(C(F)(F)F)c2)C1C(=O)Nc1ccccc1Cl (stereo not drawn) [Compound 312] | 40 | 70 | 70 | 75 | 85 | 90 | 90 | 95 | 20 | 40 | 0 | 30 | 0 | 0 | 0 | 0 | 0 | 0 | 0 | 0 | Plant response rating, Ryegrass, Italian [5, 16]: 20; Plant response rating, Ryegrass, Italian [5, 17]: 40; Plant response rating, Ryegrass, Italian [5, 18]: 20; Ryegrass, Italian plant response rating [5, 19]: 60; Plant response rating, Lambsquarters [6, 9]: 65; Plant response rating, Lambsquarters [6, 10]: 75; Plant response rating, Lambsquarters [6, 11]: 95; Plant response rating, Lambsquarters [6, 12]: 55; Lambsquarters plant response rating [6, 13]: 0; Lambsquarters plant response rating [6, 14]: 0; Plant response rating, Lambsquarters [6, 20]: 50; Plant response rating (scale of 0 to 100), Lambsquarters ([6]; Preemergence, 250 g ai/ha): 60; Plant response rating, Kochia [7, 16]: 20; Plant response rating, Kochia [7, 17]: 40; Plant response rating, Kochia [7, 18]: 20; Kochia plant response rating [7, 19]: 70; Plant response rating, Barnyardgrass ([8]; 31 g ai/ha): 0; Plant response rating, Barnyardgrass ([8]; 62 g ai/ha): 0; Plant response rating, Barnyardgrass ([8]; 125 g ai/ha): 30; Plant response rating, Barnyardgrass ([8]; 250 g ai/ha): 60
2 | Cc1cccc(NC(=O)C2C(=O)NCC2c2cccc(C(F)(F)F)c2)c1 (stereo not drawn) [Compound 317] | 0 | 0 | 25 | 70 | 90 | 90 | 95 | 95 | 0 | 0 | 0 | 0 | 0 | 0 | 0 | 0 | 0 | 0 | 0 | 0 | Plant response rating, Ryegrass, Italian [5, 16]: 0; Plant response rating, Ryegrass, Italian [5, 17]: 0; Plant response rating, Ryegrass, Italian [5, 18]: 0; Ryegrass, Italian plant response rating [5, 19]: 0; Plant response rating, Lambsquarters [6, 9]: 0; Plant response rating, Lambsquarters [6, 10]: 0; Plant response rating, Lambsquarters [6, 11]: 25; Plant response rating, Lambsquarters [6, 12]: 25; Lambsquarters plant response rating [6, 13]: 0; Lambsquarters plant response rating [6, 14]: 0; Plant response rating, Lambsquarters [6, 20]: 0; Plant response rating (scale of 0 to 100), Lambsquarters ([6]; Preemergence, 250 g ai/ha): 10; Plant response rating, Kochia [7, 16]: 0; Plant response rating, Kochia [7, 17]: 0; Plant response rating, Kochia [7, 18]: 0; Kochia plant response rating [7, 19]: 0; Plant response rating, Barnyardgrass ([8]; 31 g ai/ha): 0; Plant response rating, Barnyardgrass ([8]; 62 g ai/ha): 0; Plant response rating, Barnyardgrass ([8]; 125 g ai/ha): 30; Plant response rating, Barnyardgrass ([8]; 250 g ai/ha): 30
3 | O=C1NCC(c2cccc(OC(F)F)c2)C1C(=O)Nc1cccc(F)c1F (stereo not drawn) [Compound 324] | 0 | 35 | 55 | 65 | 90 | 95 | 95 | 98 | 20 | 50 | 30 | 60 | 0 | 0 | 0 | 0 | 0 | 0 | 0 | 0 | Plant response rating, Ryegrass, Italian [5, 16]: 30; Plant response rating, Ryegrass, Italian [5, 17]: 50; Plant response rating, Ryegrass, Italian [5, 18]: 30; Ryegrass, Italian plant response rating [5, 19]: 40; Plant response rating, Lambsquarters [6, 9]: 0; Plant response rating, Lambsquarters [6, 10]: 55; Plant response rating, Lambsquarters [6, 11]: 70; Plant response rating, Lambsquarters [6, 12]: 65; Lambsquarters plant response rating [6, 13]: 50; Lambsquarters plant response rating [6, 14]: 70; Plant response rating, Lambsquarters [6, 20]: 80; Plant response rating (scale of 0 to 100), Lambsquarters ([6]; Preemergence, 250 g ai/ha): 85; Plant response rating, Kochia [7, 16]: 50; Plant response rating, Kochia [7, 17]: 80; Plant response rating, Kochia [7, 18]: 70; Kochia plant response rating [7, 19]: 80; Plant response rating, Barnyardgrass ([8]; 31 g ai/ha): 0; Plant response rating, Barnyardgrass ([8]; 62 g ai/ha): 0; Plant response rating, Barnyardgrass ([8]; 125 g ai/ha): 60; Plant response rating, Barnyardgrass ([8]; 250 g ai/ha): 70
